# Measurements published in the supplement of paper PMC10307832.
# Key:
# Assay in all cases: relative viability (nuclei count vs DMSO), 5 days (fraction); higher = more cells survive
# [1] = compound: CC1(C)CCC(CN2CCN(c3ccc(C(=O)NS(=O)(=O)c4ccc(NCC5CCOCC5)c([N+](=O)[O-])c4)c(Oc4cnc5[nH]ccc5c4)c3)CC2)=C(c2ccc(Cl)cc2)C1 [Venetoclax] + CC1(C)CCC(c2ccc(Cl)cc2)=C(CN2CCN(c3ccc(C(=O)NS(=O)(=O)c4ccc(N[C@H](CCN5CCOCC5)CSc5ccccc5)c(S(=O)(=O)C(F)(F)F)c4)cc3)CC2)C1 [Navitoclax] (partner 0.5 µM)
# Procedure, shortened: (§1)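 Lung cancer cell lines in 1536-well plates got either a single drug or a fixed anchor-drug dose together with five library-drug doses (not always all listed) in √10 steps, by pin tool, on the day after seeding. Nuclei were counted after 5 days, and relative viability is the treated-to-vehicle ratio of nuclei counts. Values are medians of duplicate plates.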
# [2] = compound: Cn1cnc2c(F)c(Nc3ccc(Br)cc3Cl)c(C(=O)NOCCO)cc21 [Selumetinib] + Cc1cc(Nc2cc(N3CCN(C)CC3)nc(Sc3ccc(NC(=O)C4CC4)cc3)n2)n[nH]1 [Tozasertib] (partner 0.1 µM)
# Procedure, shortened: as §1
# [3] = compound: CC1(C)CCC(CN2CCN(c3ccc(C(=O)NS(=O)(=O)c4ccc(NCC5CCOCC5)c([N+](=O)[O-])c4)c(Oc4cnc5[nH]ccc5c4)c3)CC2)=C(c2ccc(Cl)cc2)C1 [Venetoclax]
# Procedure, shortened: (§2)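 Viability was defined as treated-well nuclei divided by vehicle-well nuclei, with the median taken over replicate plates. Cells from lung cancer lines sat overnight at 37 °C in 1536-well plates, received five √10-spaced library-drug doses by pinning on vehicle-anchored plates, and grew 5 days without medium change before one-step fixation, permeabilisation and Hoechst staining, 4× imaging and MetaXpress nuclear counts. Only plates with control CV under 25% and at least one doubling were kept.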
# [4] = compound: Cn1cnc2c(F)c(Nc3ccc(Br)cc3Cl)c(C(=O)NOCCO)cc21 [Selumetinib]
# Procedure, shortened: as §2
cell line,measurement,setting,value
UMC-11,relative viability,[1]; first compound 0.01 µM,0.307
same,relative viability,[1]; first compound 0.03162 µM,0.31
same,relative viability,[1]; first compound 0.1 µM,0.255
same,relative viability,[1]; first compound 0.3162 µM,0.284
same,relative viability,[1]; first compound 1 µM,0.249
same,relative viability,[2]; first compound 0.02 µM,0.215
same,relative viability,[2]; first compound 0.06325 µM,0.203
same,relative viability,[2]; first compound 0.2 µM,0.205
same,relative viability,[2]; first compound 0.6325 µM,0.199
same,relative viability,[3]; 0.01 µM,0.958
same,relative viability,[3]; 0.03162 µM,1
same,relative viability,[3]; 0.1 µM,0.901
same,relative viability,[3]; 0.3162 µM,0.944
same,relative viability,[3]; 1 µM,0.927
same,relative viability,[4]; 0.02 µM,0.936
same,relative viability,[4]; 0.06325 µM,0.909
same,relative viability,[4]; 0.2 µM,1.01
same,relative viability,[4]; 0.6325 µM,1.04
